TGI and GI50 data for 16 compounds are collected here from PubChem BioAssay (NCI).

Where “and” joins values, the source holds several entries; their conditions need not be identical. Equal entries are not always repeated.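 Interpolation was linear, between the two tested concentrations surrounding the appropriate level; five concentrations were tested over 48 hours in 96-well plates. GI50 is the concentration that inhibits growth by half. TGI is the concentration that stops growth completely.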

Some test systems named below: MDA-MB-231 breast; PC-3 prostate; MDA-N; DU-145 prostate; MDA-MB-435; T-47D breast; 786-0 renal; SN12K1 renal; P388 leukemia; DMS 114 small cell lung; XF 498 CNS; P388/ADR leukemia; DLD-1 colon; LXFL 529 NSCLC; RXF-631 renal.
Experiment in all cases: NCI tumour cell line growth inhibition, 48 h

`CCn1c(=O)c2c3ccc(O)cc3[nH]c2c2ccc(O)cc21`: the TGI in the test on MDA-MB-231 breast, with PC-3 prostate, in the test with MDA-N, in the test with DU-145 prostate, with MDA-MB-435 and in the test on T-47D breast was > 100 µM throughout.

With `O=c1[nH]c(Br)nc2n[nH]nc12`, the TGI in the test on MDA-MB-231 breast, in the test with PC-3 prostate, in the test on MDA-N, with DU-145 prostate, in the test on MDA-MB-435 and in the test with 786-0 renal was > 100 µM throughout. Also, the TGI in the test with T-47D breast was > 100 µM.

Consider `CC(=O)OC1(C)CC(C)C(=O)C(C(O)CC2CC(=O)NC(=O)C2)C1` (configuration not stated), for which the TGI with MDA-MB-231 breast was 0.196 µM; in the test on PC-3 prostate, 0.0852 µM; with MDA-N it was 0.204 µM and 0.215 µM; in the test on DU-145 prostate, 0.449 µM and 0.264 µM; in the test with MDA-MB-435, 0.272 µM and 0.733 µM; with 786-0 renal, 0.0669 µM. This compound had a TGI in the test on T-47D breast of 0.583 µM.

Take `O=[N+]([O-])c1cc(C(F)(F)F)cc2c1SC1=Nc3ccccc3CN12`: the TGI in the test with SN12K1 renal, with P388 leukemia, in the test on DMS 114 small cell lung, in the test with XF 498 CNS, in the test on P388/ADR leukemia and with DLD-1 colon was > 100 µM in each case.

For the compound `C[N+]1(C)C/C(=C\C=C\c2ccccc2)C(=O)/C(=C/C=C/c2ccccc2)C1`, the TGI in the test on MDA-MB-231 breast came out at 36.1 µM; in the test with LXFL 529 NSCLC, 11.6 µM; in the test on PC-3 prostate, 98.7 µM; with DMS 114 small cell lung it was 10.9 µM; in the test with MDA-N it was 11.1 µM; in the test on DU-145 prostate, 37.2 µM. Also, the TGI was 57.4 µM in the test with XF 498 CNS; 20 µM with MDA-MB-435; 55.3 µM with 786-0 renal; 47.4 µM in the test with T-47D breast; 45.5 µM with DLD-1 colon.

As to `CC(=O)C(C(=O)C(=O)Nc1cc(Cl)c(Cl)cc1Cl)c1csc(N)n1` (configuration not stated), the TGI in the test with LXFL 529 NSCLC, in the test on RXF-631 renal, in the test with DMS 114 small cell lung, with XF 498 CNS and in the test with DLD-1 colon was > 100 µM in each case.

In the case of `NCCNc1ccc(NCCN)c2c1C(=O)c1c(O)ccc(O)c1C2=O`, the GI50 in the test with MDA-MB-231 breast is 0.146 µM; with LXFL 529 NSCLC, 0.105 µM; in the test on MDA-N, 0.26 µM; in the test on DU-145 prostate, 0.0301 µM; in the test with DLD-1 colon it was 0.069 µM. For the same compound, the TGI with MDA-MB-231 breast is 2.14 µM and 0.621 µM; in the test with LXFL 529 NSCLC, 0.905 µM and 1.03 µM; in the test on PC-3 prostate, 1.64 µM; in the test on RXF-631 renal, 1.13 µM; in the test on MDA-N, 2.33 µM and 1.43 µM; in the test with DU-145 prostate, 0.398 µM and 2.56 µM. Moreover, the TGI with XF 498 CNS is 0.298 µM; in the test on MDA-MB-435, 2.37 µM; with 786-0 renal, 0.0555 µM and 0.0497 µM; in the test with T-47D breast, 2.66 µM and 4.38 µM; in the test on DLD-1 colon, 1.05 µM and 0.974 µM.

As for `NCCCC(N)(C(=O)O)C(F)F` (configuration not stated), the TGI was > 1580 µM in the test on SN12K1 renal; > 5000 µM in the test on P388 leukemia; > 5000 µM in the test on DMS 114 small cell lung; > 5000 µM in the test on P388/ADR leukemia; > 5000 µM in the test on DLD-1 colon.

As for `NC1C2C=CC(C2)C1C(=O)O` (configuration not stated), the TGI in the test on MDA-MB-231 breast, in the test on PC-3 prostate, in the test with MDA-N, with DU-145 prostate, with MDA-MB-435 and in the test with 786-0 renal was > 100 µM each time. Besides, in the test with T-47D breast, the TGI was > 100 µM.

As to `COc1cc2c(cc1OC)-c1cc3cc(OC)c(OC)cc3c(C)[n+]1CC2` (tested in a mixture with another compound), the TGI in the test with MDA-MB-231 breast, in the test with PC-3 prostate, in the test with MDA-N, in the test with DU-145 prostate, in the test on MDA-MB-435 and in the test with 786-0 renal was > 100 µM in each case. In the test with T-47D breast, the TGI was found to be 25.2 µM.

In the case of `CCN(CC)CCCNC(=O)c1ccccc1Nc1c(Cl)cccc1Cl`, the TGI came out at 28.8 µM with LXFL 529 NSCLC, 26.2 µM in the test with DMS 114 small cell lung, 9.71 µM in the test on XF 498 CNS and 23.8 µM in the test with DLD-1 colon.

Consider `Oc1ccccc1CNCc1ccccc1O`, for which the TGI in the test with MDA-MB-231 breast, in the test on PC-3 prostate, with MDA-N, with DU-145 prostate, with MDA-MB-435 and with 786-0 renal was > 100 µM in each case. Also, the TGI with T-47D breast was > 100 µM.

`Nc1n[nH]c(N)n1`: the TGI is > 10000 µM in the test with SN12K1 renal; > 10000 µM in the test on MDA-MB-231 breast; 4240 µM in the test with P388 leukemia; > 10000 µM with PC-3 prostate; 6880 µM with DMS 114 small cell lung; > 10000 µM with MDA-N. The TGI with DU-145 prostate is > 10000 µM; in the test with XF 498 CNS, 2750 µM; with MDA-MB-435, > 10000 µM; with 786-0 renal, > 10000 µM; with P388/ADR leukemia, 8070 µM; with T-47D breast, > 10000 µM. The TGI with DLD-1 colon was > 10000 µM.

`O=C(N/N=C/c1cc(Cl)cc(Cl)c1[OH2+])c1ccncc1.O=S(=O)([O-])[O-].[Fe+2]` showed a TGI in the test on 786-0 renal of 53.9 µM.

For `COc1cccc2c1C(=O)c1c(O)c3c(c(O)c1C2=O)CC(O)(C(C)=O)CC3OC1OC(COC(C)=O)C(OC(C)=O)C(OC(C)=O)C1OC(C)=O` (configuration not stated), the TGI in the test with MDA-MB-231 breast is 63.7 µM; in the test with PC-3 prostate, > 100 µM; with DU-145 prostate, > 100 µM; in the test with MDA-MB-435, > 100 µM; with 786-0 renal it was 56.3 µM; in the test with T-47D breast, > 100 µM.

On to `CCCCCC1CC(C(C)=O)CN1c1ccc(F)cc1` (configuration not stated), for which the TGI with LXFL 529 NSCLC was > 100 µM; in the test with DMS 114 small cell lung it was 62 µM; in the test on XF 498 CNS it was 52.5 µM; with DLD-1 colon it was > 100 µM.
